# Results from patent publication US20230295182A1, “SPIRO DERIVATIVES OF ALPHA-D-GALACTOPYRANOSIDES” (Idorsia Pharmaceuticals Ltd, priority 2020, published 2023).
# Experiments:
# human Gal-3 (hGal-3) = human Gal-3 (hGal-3) (Homo sapiens (Human), UniProt P17931); assay: Competitive binding assay: biotinylated hGal-3 to microplate-adsorbed asialofetuin (ASF); settings: Activity on hGal-3; binding to ASF-coated plates, 3 hours at 4° C.; mean values
# Outline: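 Biotinylated hGal-3 (300-1000 ng/mL) binding to plate-adsorbed asialofetuin, with DMSO-diluted compound added, incubated 3 h at 4 °C. After washing, bound protein detected with streptavidin-peroxidase (80 ng/mL, 1 h, 4 °C) and ABTS substrate, read spectrophotometrically. IC50 given as mean of several measurements.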
# human Gal-1 (hGal-1) = human Gal-1 (hGal-1) (Homo sapiens, UniProt P09382); assay: Competitive binding assay: biotinylated hGal-1 to microplate-adsorbed asialofetuin (ASF); settings: Activities on hGal-1; binding to ASF-coated plates, 3 hours at 4° C.; mean values; read-out: Gal-1 IC50
# Outline: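 Plate-adsorbed asialofetuin is incubated 3 h at 4 °C with biotinylated hGal-1, optionally its all-serine-substituted cysteine variant, plus compound dilutions. ABTS color after 1 h streptavidin-peroxidase (80 ng/mL) at 4 °C reports binding. Reported IC50 is a mean across repeat runs.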
# human Gal-3 (hGal-3), sequence (P17931 whole entry): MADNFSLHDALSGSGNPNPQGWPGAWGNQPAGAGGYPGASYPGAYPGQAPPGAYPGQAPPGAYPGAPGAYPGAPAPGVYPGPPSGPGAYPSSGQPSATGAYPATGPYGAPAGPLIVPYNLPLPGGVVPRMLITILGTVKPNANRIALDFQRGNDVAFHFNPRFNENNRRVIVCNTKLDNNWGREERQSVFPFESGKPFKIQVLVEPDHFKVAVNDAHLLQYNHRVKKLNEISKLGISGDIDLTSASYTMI
# human Gal-1 (hGal-1), sequence (P09382 2-135 limits assumed): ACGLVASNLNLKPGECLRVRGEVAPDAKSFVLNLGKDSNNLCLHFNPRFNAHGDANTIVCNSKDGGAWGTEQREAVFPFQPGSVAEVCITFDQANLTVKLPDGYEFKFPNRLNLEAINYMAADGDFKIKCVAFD
SMILES,IC50 (human Gal-3 (hGal-3)) [nM],IC50 (human Gal-1 (hGal-1)) [nM]
"CO[C@@H]1[C@@H](n2cc(-c3ccc(C)c(F)c3F)nn2)[C@@H](O)[C@@H](CO)O[C@@H]1CN1CC2(CCCCC2)OC1=O [Example 3.02, 3-(((2R,3R,4S,5R,6R)-4-(4-(2,3-difluoro-4-methylphenyl)-1H-1,2,3-triazol-1-yl)-5-hydroxy-6-(hydroxymethyl)-3-methoxytetrahydro-2H-pyran-2-yl)methyl)-1-oxa-3-azaspiro[4.5]decan-2-one]",36,1400
"CO[C@@H]1[C@@H](n2cc(-c3ccc(F)c(F)c3F)nn2)[C@@H](O)[C@@H](CO)O[C@@H]1CC1=NOC2(CCC(C#N)CC2)C1 (stereo partly drawn) [Example 1.50, 3-(((2R,3R,4S,5R,6R)-5-hydroxy-6-(hydroxymethyl)-3-methoxy-4-(4-(2,3,4-trifluorophenyl)-1H-1,2,3-triazol-1-yl)tetrahydro-2H-pyran-2-yl)methyl)-1-oxa-2-azaspiro[4.5]dec-2-ene-8-carbonitrile]",160,570
"CO[C@@H]1[C@@H](n2cc(-c3ccc(Cl)c(F)c3F)nn2)[C@@H](O)[C@@H](CO)O[C@@H]1CC1=NOC2(CCCCC2)C1 [Example 1.22, (2R,3R,4S,5R,6R)-6-((1-oxa-2-azaspiro[4.5]dec-2-en-3-yl)methyl)-4-(4-(4-chloro-2,3-difluorophenyl)-1H-1,2,3-triazol-1-yl)-2-(hydroxymethyl)-5-methoxytetrahydro-2H-pyran-3-ol]",76,3700
"CO[C@@H]1[C@@H](n2cc(-c3ccc(Cl)c(F)c3F)nn2)[C@@H](O)[C@@H](CO)O[C@@H]1CC1=NOC2(CCC(C(C)(C)O)CC2)C1 (stereo partly drawn) [Example 1.55, (2R,3R,4S,5R,6R)-4-(4-(4-chloro-2,3-difluorophenyl)-1H-1,2,3-triazol-1-yl)-2-(hydroxymethyl)-6-((8-(2-hydroxypropan-2-yl)-1-oxa-2-azaspiro[4.5]dec-2-en-3-yl)methyl)-5-methoxytetrahydro-2H-pyran-3-ol]",400,4400
"CC(=O)O[C@@H]1[C@@H](n2cc(-c3ccc(C)c(F)c3F)nn2)[C@@H](O)[C@@H](CO)O[C@@H]1CC1=NOC2(CCC(F)(F)CC2)C1 [Example 1.03, (2R,3R,4S,5R,6R)-2-((8,8-difluoro-1-oxa-2-azaspiro[4.5]dec-2-en-3-yl)methyl)-4-(4-(2,3-difluoro-4-methylphenyl)-1H-1,2,3-triazol-1-yl)-5-hydroxy-6-(hydroxymethyl)tetrahydro-2H-pyran-3-yl acetate]",79,> 100000
"CO[C@@H]1[C@@H](n2cc(-c3ccc(Cl)c(F)c3F)nn2)[C@@H](O)[C@@H](CO)O[C@@H]1CC1=NO[C@]2(CC[C@H](C(C)(C)O)CC2)C1 [Example 1.64, (2R,3R,4S,5R,6R)-4-(4-(4-chloro-2,3-difluorophenyl)-1H-1,2,3-triazol-1-yl)-2-(hydroxymethyl)-6-(((5r,8R)-8-(2-hydroxypropan-2-yl)-1-oxa-2-azaspiro[4.5]dec-2-en-3-yl)methyl)-5-methoxytetrahydro-2H-pyran-3-ol]",490,2400
"CO[C@@H]1[C@@H](n2cc(-c3ccc(Cl)c(F)c3F)nn2)[C@@H](O)[C@@H](CO)O[C@@H]1CC1=NO[C@]2(CC[C@H](NC(C)=O)CC2)C1 [Example 2.07, N-((5r,8R)-3-(((2R,3R,4S,5R,6R)-4-(4-(4-chloro-2,3-difluorophenyl)-1H-1,2,3-triazol-1-yl)-5-hydroxy-6-(hydroxymethyl)-3-methoxytetrahydro-2H-pyran-2-yl)methyl)-1-oxa-2-azaspiro[4.5]dec-2-en-8-yl)acetamide]",62,910

# The remaining lines, values ahead:
IC50 (human Gal-3 (hGal-3)) [nM],IC50 (human Gal-1 (hGal-1)) [nM],SMILES
69,1500,"CO[C@@H]1[C@@H](n2cc(-c3cc(F)c(F)c(F)c3)nn2)[C@@H](O)[C@@H](CO)O[C@@H]1CC1=NOC2(CCC(NC(=O)OC(C)(C)C)CC2)C1 (stereo partly drawn) [Example 1.11, tert-butyl (3-(((2R,3R,4S,5R,6R)-5-hydroxy-6-(hydroxymethyl)-3-methoxy-4-(4-(3,4,5-trifluorophenyl)-1H-1,2,3-triazol-1-yl)tetrahydro-2H-pyran-2-yl)methyl)-1-oxa-2-azaspiro[4.5]dec-2-en-8-yl)carbamate]"
340,3400,"CO[C@@H]1[C@@H](n2cc(-c3cc(F)c(F)c(F)c3)nn2)[C@@H](O)[C@@H](CO)O[C@@H]1CC1=NOC2(CCC(C)(C)C2)C1 (stereo partly drawn) [Example 1.32, (2R,3R,4S,5R,6R)-6-((7,7-dimethyl-1-oxa-2-azaspiro[4.4]non-2-en-3yl)methyl)-2-(hydroxymethyl)-5-methoxy-4-(4-(3,4,5-trifluorophenyl)-1H-1,2,3-triazol-1-yl)tetrahydro-2H-pyran-3-ol]"
260,970,"CO[C@@H]1[C@@H](n2cc(-c3cc(F)c(F)c(Cl)c3)nn2)[C@@H](O)[C@@H](CO)O[C@@H]1CC1=NOC2(CCCCC2)C1 [Example 1.31, (2R,3R,4S,5R,6R)-6-((1-oxa-2-azaspiro[4.5]dec-2-en-3-yl)methyl)-4-(4-(3-chloro-4,5-difluorophenyl)-1H-1,2,3-triazol-1-yl)-2-(hydroxymethyl)-5-methoxytetrahydro-2H-pyran-3-ol]"
110,6500,"NC(=O)O[C@@H]1[C@@H](n2cc(-c3cc(F)c(F)c(F)c3)nn2)[C@@H](O)[C@@H](CO)O[C@@H]1CC1=NOC2(CCCCC2)C1 [Example 1.73, (2R,3R,4S,5R,6R)-2-((1-oxa-2-azaspiro[4.5]dec-2-en-3-yl)methyl)-5-hydroxy-6-(hydroxymethyl)-4-(4-(3,4,5-trifluorophenyl)-1H-1,2,3-triazol-1-yl)tetrahydro-2H-pyran-3-yl carbamate]"
760,3500,"CO[C@@H]1[C@@H](n2cc(-c3cc(F)c(F)c(F)c3)nn2)[C@@H](O)[C@@H](CO)O[C@@H]1CC1=NOC2(CCOCC2)C1 [Example 1.23, (2R,3R,4S,5R,6R)-6-((1,8-dioxa-2-azaspiro[4.5]dec-2-en-3-yl)methyl)-2-(hydroxymethyl)-5-methoxy-4-(4-(3,4,5-trifluorophenyl)-1H-1,2,3-triazol-1-yl)tetrahydro-2H-pyran-3-ol]"
220,2400,"CO[C@@H]1[C@@H](n2cc(-c3cc(F)c(F)c(F)c3)nn2)[C@@H](O)[C@@H](CO)O[C@@H]1CC1=NO[C@]2(CC[C@H](NC(C)C)CC2)C1 [Example 2.12, (2R,3R,4S,5R,6R)-2-(hydroxymethyl)-6-(((5r,8R)-8-(isopropylamino)-1-oxa-2-azaspiro[4.5]dec-2-en-3-yl)methyl)-5-methoxy-4-(4-(3,4,5-trifluorophenyl)-1H-1,2,3-triazol-1-yl)tetrahydro-2H-pyran-3-ol]"
270,1200,"CO[C@@H]1[C@@H](n2cc(-c3ccc(F)c(F)c3F)nn2)[C@@H](O)[C@@H](CO)O[C@@H]1CC1=NO[C@]2(CC[C@@H](C(C)(C)O)CC2)C1 [Example 1.53, (2R,3R,4S,5R,6R)-2-(hydroxymethyl)-6-(((5s,8S)-8-(2-hydroxypropan-2-yl)-1-oxa-2-azaspiro[4.5]dec-2-en-3-yl)methyl)-5-methoxy-4-(4-(2,3,4-trifluorophenyl)-1H-1,2,3-triazol-1-yl)tetrahydro-2H-pyran-3-ol]"
